{"source": "patent US20250108213A1", "about": "“COMPOSITIONS AND METHODS FOR ENHANCING THE EFFECT OF PLATINUM-BASED SYSTEMIC THERAPY” (NOVOCURE GMBH, priority 2023, published 2025)", "key": {"A2780 cells [1]": {"system": "A2780 cells", "procedure": "(§1) Cells were seeded on coverslip (22 mm diameter; 20×10^3 cells/coverslip for A2780 and A2780cis; 40×10^3 cells/coverslip for OVCAR-3). After overnight incubation, the coverslips were transferred into in vitro dishes containing 2 ml of media. TTFields at a frequency of 200 kHz (and intensity of 1 V/cm RMS) were applied to the cells for 72 hr using the INOVITRO system (Novocure, Haifa, Israel).\n(§2) For efficacy outcomes (cell count, overall effect, and apoptosis), various concentrations of carboplatin (MCE MedChemExpress, HY-17393), olaparib (Cayman Chemical, 10621), or niraparib (Cayman Chemical, 20842) were applied, with or without TTFields.\n(§3) Cell count was examined following treatment using Cytek Northern Lights flow cytometer (Cytek Biosciences, USA).\n(§4) Treated cells were harvested, re-plated in 6-well plates (500 cells/well for A2780 and A2780cis; 1000 for cells/well OVCAR-3), and grown for 7 (A2780 and A2780cis) or 21 (OVCAR-3) days. Colonies were stained with 0.5% crystal violet, quantified with ImageJ, and expressed as percentages relative to control. Overall effect was calculated by multiplying colony formation with the corresponding cell count.\n(§5) The surviving fraction predicted for an additive effect between TTFields and drug was calculated per the various drug concentrations by multiplying the actual measured surviving fractions for the individual treatments one by the other (SFcalculated additive=SFTTFields×SFdrug; SF are expressed as probability). Based on the calculated values, a trendline was determined. Additivity, synergy, or antagonism was defined when the calculated additive trendline overlapped, was above, or was below the actual measured line for TTFields+drug, respectively.\n(§6) For quantifying the magnitude of TTFields-drug interaction, interaction index (Ii) values were calculated by the Bliss independence method using mortality values (Mx=1−SFx). Per the various drug concentrations, mortality predicted for an additive effect between TTFields and drug (Mcalculated additive=MTTFields+Mdrug−MTTFields×Mdrug) was divided by the actual measured mortality for TTFields+drug. Additivity was determined when the 95% confidence interval (CI) overlapped 1, synergy when 95% CI<1, and antagonism when 95% CI>1. Lower Ii values were considered indicative of higher synergy levels."}, "OVCAR-3 cells [2]": {"system": "OVCAR-3 cells", "procedure": "as §1, §2, §3, §4, §5, §6"}, "A2780 cells [3]": {"system": "A2780 cells", "experiment": "Apoptosis, Annexin V/7-AAD staining, flow cytometer", "format": "cell-based, human", "conditions": "TTFields applied with drug", "procedure": "(§7) Apoptosis: Treated cells were double-stained with FITC-conjugated annexin V (AnnV) and 7-aminoactinomycin D (7AAD), and data acquisition was performed with a flow cytometer.\nApoptosis was also examined. Treated cells were double-stained with FITC-conjugated annexin V (AnnV) and 7-aminoactinomycin D (7AAD), and data acquisition was performed with a flow cytometer.\n(§8) Treated cells were stained with FITC-conjugated Annexin V (AnnV) and 7-Aminoactinomycin D (7-AAD) using a commercial kit (BioLegend, San Diego, CA, USA), according to the manufacturer's instruction. Data acquisition and analysis were done on the Cytek Northern Lights flow cytometer"}, "OVCAR-3 cells [4]": {"system": "OVCAR-3 cells", "experiment": "Apoptosis, Annexin V/7-AAD staining, flow cytometer", "format": "cell-based, human", "conditions": "TTFields applied with drug", "procedure": "as §7, §8"}, "G2/M cell cycle arrest": {"system": "G2/M cell cycle arrest", "experiment": "Cell cycle analysis (7-AAD, flow cytometer)", "format": "cell-based, human", "procedure": "For DNA damage and cell cycle examination, the following drug concentrations were selected: For A2780—6 μM carboplatin, 1 μM olaparib, and 0.5 μM niraparib; For OVCAR-3-16 μM carboplatin, 0.5 μM olaparib, and 0.8 μM niraparib; For A2780cis—36 μM carboplatin, 10 μM olaparib, and 1.5 μM niraparib. Treated cells were fixed with 70% ice-cold ethanol for 30 min, pelleted, washed, and stained for 30 min at 37° C. in phosphate buffered saline (PBS) containing 1% FBS 5 μg/ml 7-AAD (BioLegend), 200 μg/ml RNase, 1 mM EDTA and 0.1% Triton X-100. Data acquisition (at 665/30 nm) and analysis were done on the Cytek Northern Lights flow cytometer and the FlowJo 10.8.1 software (BD Biosciences), respectively."}, "[5]": {"system": "orthotopic ID8-fLuc (HRP) ovarian cancer tumors", "experiment": "Tumor load by bioluminescent imaging in ovarian cancer bearing mice", "format": "in vivo", "procedure": "(§9) Murine experiments were approved by the KU Leuven ethical committee (P082/2021). NIH guidelines for the Care and Use of Laboratory Animals were followed along with the 2010/62/EU directive and the ARRIVE (Animal Research: Reporting of In Vivo Research: Reporting of In Vivo Experiments) guidelines. Syngeneic ID8-fluc cells were harvested using 0.05% Trypsin-EDTA and inoculated (5×10^6 cells in 100 μL DPBS) intraperitoneally in female C57BL/6 mice (six- to eight-week-old, obtained from Envigo (Horst, The Netherlands)), leading to the development of a stage III-IV ovarian cancer model.\nSeven days post inoculation, treatment was initiated. Mice were divided into four groups receiving either, sham-heat and vehicle (n=8), sham-heat and olaparib (n=8), TTFields and vehicle (n=7) or TTFields and olaparib (n=11). TTFields treatment (200 kHz) was administered continuously using the in vivo system (Novocure, Israel) by applying electrode arrays to the shaven abdomen of the mice as previously described. […]\nTumor load was observed through bioluminescent imaging analysis before (day 5) and after (day 35) treatment administration. […] Ten minutes post injection, photon flux was measured using the IVIS-spectrum preclinical In Vivo Imaging System (Perkin-Elmer, USA). Normalized photon flux was calculated by subtracting the photon flux before treatment from the paired photon flux after treatment per mouse."}, "[6]": {"system": "orthotopic ID8-fLuc (HRP) ovarian cancer tumors", "experiment": "Overall survival of ovarian cancer bearing mice", "format": "in vivo", "procedure": "as §9\nSeven days post inoculation, treatment was initiated. Mice were divided into four groups receiving either, sham-heat and vehicle (n=8), sham-heat and olaparib (n=8), TTFields and vehicle (n=7) or TTFields and olaparib (n=11). TTFields treatment (200 kHz) was administered continuously using the in vivo system (Novocure, Israel) by applying electrode arrays to the shaven abdomen of the mice as previously described. Sham-heat used analogous non-therapeutic arrays. Olaparib (MedKoo Biosciences, USA) was dissolved in a vehicle of 10% DMSO, 50% PEG300 and 40% DPBS and administered at a concentration of 50 mg/kg/day through daily oral gavage. Overall, therapeutic interventions lasted for four weeks, given in four cycles of five consecutive treatment days, followed by two days without treatment.\nMice were followed up and weighed daily once ascites development started as indicated by the appearance of abdominal distention. Mice were sacrificed when their body weight reached ≥32 grams as a surrogate endpoint for survival."}, "[7]": {"conditions": "TTFields 200 kHz, 1 V/cm RMS, 72 h"}, "[8]": {"conditions": "TTFields plus drug vs drug alone"}, "[9]": {"conditions": "TTFields plus drug vs drug alone, p<0.0001"}}, "note": "Entries after “also recorded” stand apart in the source; their conditions may differ.", "data": [{"smiles": "O=C(c1cc(Cc2n[nH]c(=O)c3ccccc23)ccc1F)N1CCN(C(=O)C2CC2)CC1", "note": "[olaparib]", "values": [{"measurement": "type of TTFields-drug interaction, cytotoxic effect (cell count)", "setting": "A2780 cells [1]", "result": "synergistically"}, {"measurement": "level of TTFields-drug synergy", "setting": "A2780 cells [1]; A2780 relative to A2780cis cells, by Ii", "result": "higher"}, {"measurement": "type of TTFields-drug interaction (measured vs calculated additive curve)", "setting": "A2780 cells [1]; HRP cells, TTFields 200 kHz, 1 V/cm RMS, 72 h", "result": "high synergy"}, {"measurement": "type of TTFields-drug interaction, overall effect (cell count and clonogenic effect)", "setting": "A2780 cells [1]; [7]", "result": "synergistically"}, {"measurement": "effect of TTFields on the drug-induced overall effect (cell count x colony formation)", "setting": "A2780 cells [1]; [8]", "result": "significantly augmented"}, {"measurement": "effect of TTFields on the drug-induced effect, cell count", "setting": "A2780 cells [1]; [9]", "result": "significantly augmented"}, {"measurement": "type of TTFields-drug interaction (measured vs calculated additive curve)", "setting": "OVCAR-3 cells [2]; HRD cells, TTFields 200 kHz, 1 V/cm RMS, 72 h", "result": "additively"}, {"measurement": "type of TTFields-drug interaction, overall effect (cell count and clonogenic effect)", "setting": "OVCAR-3 cells [2]; [7]", "result": "additive"}, {"measurement": "type of TTFields-drug interaction, cytotoxic effect (cell count)", "setting": "OVCAR-3 cells [2]; TTFields 200 kHz, 1 V/cm RMS, 72 h, BRCA mutant", "result": "additively"}, {"measurement": "effect of TTFields on the drug-induced overall effect (cell count x colony formation)", "setting": "OVCAR-3 cells [2]; [8]", "result": "significantly augmented"}, {"measurement": "effect of TTFields on the drug-induced effect, cell count", "setting": "OVCAR-3 cells [2]; [9]", "result": "significantly augmented"}, {"measurement": "sensitivity to drug (cell count dose response)", "setting": "OVCAR-3 cells [2]; drug alone, 72 h, compared among A2780, OVCAR-3, A2780cis", "result": "highest sensitivity"}, {"measurement": "effect of TTFields on the apoptotic effect / apoptotic cell fraction", "setting": "A2780 cells [3]", "result": "enhanced; also recorded: elevation"}, {"measurement": "effect of TTFields on the apoptotic effect / apoptotic cell fraction", "setting": "OVCAR-3 cells [4]", "result": "enhanced; also recorded: elevation"}, {"measurement": "cell cycle arrest, drug alone", "setting": "G2/M cell cycle arrest", "result": "induced G2/M arrest"}, {"measurement": "tumor volumes lower compared to controls and to olaparib only treated mice", "setting": "[5]; TTFields (200 kHz) plus olaparib 50 mg/kg/day oral gavage, after 4 weeks, p=0.0183 vs controls, p=0.0066 vs olaparib only", "result": "about 80%"}, {"measurement": "tumor growth relative to olaparib alone and to control, TTFields and olaparib together", "setting": "[5]; TTFields plus olaparib 50 mg/kg/day", "result": "significant reduction"}, {"measurement": "median overall survival, TTFields plus olaparib", "setting": "[6]; TTFields (200 kHz) plus olaparib 50 mg/kg/day, control 62 days", "result": 70, "unit": "days"}, {"measurement": "median overall survival, monotherapy", "setting": "[6]; monotherapy, control 62 days", "result": 64.5, "unit": "days"}, {"measurement": "survival compared to control mice, monotherapy", "setting": "[6]; olaparib only, p=0.0401", "result": "survival benefit"}, {"measurement": "survival, TTFields plus olaparib compared to control and monotherapies", "setting": "[6]; p=0.0003 vs control, p=0.0003 vs olaparib, p=0.0130 vs TTFields", "result": "significantly prolonged"}]}]}
